Legend:
Assay type in all cases: biochemical
Settings in all cases: 10 μM, ATP near Km
JNK2alpha2 = target: T1, JNK2alpha2 (Homo sapiens, UniProt P45984); assay: KinaseProfiler JNK2alpha2
T1 construct: purchased Millipore, Inc. (KinaseProfiler service)
Excerpt: (§1) The compound was run in duplicate at a concentration of ATP near the Km for each individual kinase according to Millipore's specifications.

PrKX = target: T2, PrKX (Homo sapiens, UniProt P51817); assay: KinaseProfiler PrKX
T2 construct: purchased Millipore, Inc. (KinaseProfiler service)
T2 sequence (P51817 whole entry): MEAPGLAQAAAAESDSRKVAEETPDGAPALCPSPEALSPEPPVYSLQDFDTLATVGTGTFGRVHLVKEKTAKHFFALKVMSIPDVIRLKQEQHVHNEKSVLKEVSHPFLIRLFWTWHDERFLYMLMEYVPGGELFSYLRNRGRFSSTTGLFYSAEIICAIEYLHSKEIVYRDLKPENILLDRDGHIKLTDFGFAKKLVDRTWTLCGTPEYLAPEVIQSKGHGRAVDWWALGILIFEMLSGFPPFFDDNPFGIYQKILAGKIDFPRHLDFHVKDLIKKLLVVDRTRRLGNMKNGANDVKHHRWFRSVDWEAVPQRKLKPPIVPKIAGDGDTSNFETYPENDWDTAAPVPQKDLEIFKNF
Excerpt: as §1

Lyn = target: T3, Lyn (Homo sapiens, UniProt P07948); assay: KinaseProfiler Lyn
T3 construct: purchased Millipore, Inc. (KinaseProfiler service)
T3 sequence (P07948 whole entry): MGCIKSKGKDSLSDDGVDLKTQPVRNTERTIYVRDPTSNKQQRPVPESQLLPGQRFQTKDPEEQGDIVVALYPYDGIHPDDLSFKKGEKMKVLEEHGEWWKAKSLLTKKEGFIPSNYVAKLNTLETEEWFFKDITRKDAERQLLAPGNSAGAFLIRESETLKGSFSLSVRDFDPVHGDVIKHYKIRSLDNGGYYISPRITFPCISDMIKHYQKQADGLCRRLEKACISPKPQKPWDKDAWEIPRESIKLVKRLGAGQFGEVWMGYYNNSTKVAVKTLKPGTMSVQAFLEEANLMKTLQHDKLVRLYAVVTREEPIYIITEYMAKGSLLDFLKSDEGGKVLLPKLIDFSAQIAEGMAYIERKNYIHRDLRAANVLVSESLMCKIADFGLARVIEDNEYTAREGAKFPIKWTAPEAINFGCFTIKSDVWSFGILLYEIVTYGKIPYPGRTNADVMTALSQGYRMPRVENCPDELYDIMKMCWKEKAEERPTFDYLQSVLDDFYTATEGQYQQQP
Excerpt: as §1

Hck = target: T4, Hck (Homo sapiens, UniProt P08631); assay: KinaseProfiler Hck
T4 construct: purchased Millipore, Inc. (KinaseProfiler service)
T4 sequence (P08631 whole entry): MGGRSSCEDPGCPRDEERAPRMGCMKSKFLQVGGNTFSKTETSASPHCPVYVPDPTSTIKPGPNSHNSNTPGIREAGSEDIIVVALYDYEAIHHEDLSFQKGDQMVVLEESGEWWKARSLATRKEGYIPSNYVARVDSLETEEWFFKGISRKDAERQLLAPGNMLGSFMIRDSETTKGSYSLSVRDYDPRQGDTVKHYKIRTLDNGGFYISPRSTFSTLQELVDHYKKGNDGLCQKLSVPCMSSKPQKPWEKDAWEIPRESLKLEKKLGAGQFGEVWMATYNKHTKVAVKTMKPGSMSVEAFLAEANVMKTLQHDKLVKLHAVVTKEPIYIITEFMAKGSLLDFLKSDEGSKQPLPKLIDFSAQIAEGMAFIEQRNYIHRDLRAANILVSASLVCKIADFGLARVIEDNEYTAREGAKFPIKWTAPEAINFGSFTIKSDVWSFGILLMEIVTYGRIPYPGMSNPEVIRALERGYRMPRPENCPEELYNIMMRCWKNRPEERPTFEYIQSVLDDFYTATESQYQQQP
Excerpt: as §1

MKNK2 = target: T5, MKNK2 (Homo sapiens, UniProt Q9HBH9); assay: KinaseProfiler MKNK2
T5 construct: purchased Millipore, Inc. (KinaseProfiler service)
T5 sequence (Q9HBH9 whole entry): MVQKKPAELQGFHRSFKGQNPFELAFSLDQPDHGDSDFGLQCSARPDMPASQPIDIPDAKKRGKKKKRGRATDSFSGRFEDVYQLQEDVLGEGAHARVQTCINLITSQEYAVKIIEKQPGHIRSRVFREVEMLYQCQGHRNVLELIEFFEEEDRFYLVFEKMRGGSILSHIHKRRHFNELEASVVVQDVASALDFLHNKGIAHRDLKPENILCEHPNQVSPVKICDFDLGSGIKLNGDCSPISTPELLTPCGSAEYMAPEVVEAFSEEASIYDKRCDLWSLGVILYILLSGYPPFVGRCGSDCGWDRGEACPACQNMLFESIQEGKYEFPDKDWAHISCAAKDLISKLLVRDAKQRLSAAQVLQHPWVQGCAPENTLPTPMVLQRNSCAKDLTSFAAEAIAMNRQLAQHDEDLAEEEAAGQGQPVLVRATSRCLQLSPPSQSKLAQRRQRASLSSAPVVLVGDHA
Excerpt: as §1

Abl2 = target: T6, Abl2 (Homo sapiens, UniProt P42684); assay: KinaseProfiler Abl2
T6 construct: purchased Millipore (KinaseProfiler service)
T6 sequence (P42684 whole entry): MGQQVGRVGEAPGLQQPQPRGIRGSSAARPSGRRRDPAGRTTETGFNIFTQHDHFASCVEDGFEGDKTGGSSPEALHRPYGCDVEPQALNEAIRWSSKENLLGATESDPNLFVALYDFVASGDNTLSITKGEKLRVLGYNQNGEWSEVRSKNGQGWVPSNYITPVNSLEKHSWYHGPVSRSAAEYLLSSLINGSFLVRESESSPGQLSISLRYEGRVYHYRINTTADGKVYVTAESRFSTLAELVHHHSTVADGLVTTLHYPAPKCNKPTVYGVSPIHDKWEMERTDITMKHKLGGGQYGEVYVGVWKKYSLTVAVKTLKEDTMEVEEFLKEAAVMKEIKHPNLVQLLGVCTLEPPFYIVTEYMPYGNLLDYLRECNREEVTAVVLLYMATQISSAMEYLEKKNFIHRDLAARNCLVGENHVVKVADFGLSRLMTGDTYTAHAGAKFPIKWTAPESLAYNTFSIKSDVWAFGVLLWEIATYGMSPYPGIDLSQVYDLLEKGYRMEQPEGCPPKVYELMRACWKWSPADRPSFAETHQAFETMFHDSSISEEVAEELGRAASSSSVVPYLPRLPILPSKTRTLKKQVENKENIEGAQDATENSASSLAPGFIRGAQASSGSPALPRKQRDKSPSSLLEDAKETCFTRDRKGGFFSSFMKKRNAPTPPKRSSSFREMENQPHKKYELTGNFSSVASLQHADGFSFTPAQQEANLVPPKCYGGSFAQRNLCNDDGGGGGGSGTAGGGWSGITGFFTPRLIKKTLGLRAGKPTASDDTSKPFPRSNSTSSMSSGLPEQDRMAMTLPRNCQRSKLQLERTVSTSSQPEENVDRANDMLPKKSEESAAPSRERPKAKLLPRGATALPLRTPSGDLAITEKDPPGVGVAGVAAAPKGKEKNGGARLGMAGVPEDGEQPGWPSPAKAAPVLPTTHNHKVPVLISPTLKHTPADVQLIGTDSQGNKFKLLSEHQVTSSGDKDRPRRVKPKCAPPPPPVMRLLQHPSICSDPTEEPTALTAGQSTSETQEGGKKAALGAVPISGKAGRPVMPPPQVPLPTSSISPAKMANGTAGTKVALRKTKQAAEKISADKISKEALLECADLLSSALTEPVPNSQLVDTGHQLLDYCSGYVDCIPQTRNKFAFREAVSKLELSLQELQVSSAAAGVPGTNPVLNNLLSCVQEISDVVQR
Excerpt: as §1

ITK = target: T7, ITK (Homo sapiens, UniProt Q08881); assay: KinaseProfiler ITK
T7 construct: purchased Millipore, Inc. (KinaseProfiler service)
Excerpt: as §1

ZAP-70 = target: T8, ZAP-70 (Homo sapiens, UniProt P43403); assay: KinaseProfiler ZAP-70
T8 construct: purchased Millipore, Inc. (KinaseProfiler service)
Excerpt: as §1

CDK9/cyclinT1 = target: T9, CDK9/cyclinT1 (Homo sapiens, UniProt P50750); assay: KinaseProfiler CDK9/cyclinT1
T9 construct: purchased Millipore, Inc. (KinaseProfiler service)
T9 sequence (P50750 whole entry): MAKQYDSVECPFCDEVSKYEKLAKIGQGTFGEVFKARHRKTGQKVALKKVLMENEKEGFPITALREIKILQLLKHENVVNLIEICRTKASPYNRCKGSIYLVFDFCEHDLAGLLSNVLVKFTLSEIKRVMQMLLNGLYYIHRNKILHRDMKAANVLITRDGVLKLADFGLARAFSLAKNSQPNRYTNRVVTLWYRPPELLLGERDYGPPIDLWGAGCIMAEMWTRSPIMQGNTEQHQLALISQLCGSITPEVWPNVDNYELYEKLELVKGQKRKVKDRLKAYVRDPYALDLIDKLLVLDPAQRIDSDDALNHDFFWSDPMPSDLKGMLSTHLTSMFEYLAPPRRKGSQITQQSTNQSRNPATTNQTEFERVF
T9 sequence (O60563 whole entry partner): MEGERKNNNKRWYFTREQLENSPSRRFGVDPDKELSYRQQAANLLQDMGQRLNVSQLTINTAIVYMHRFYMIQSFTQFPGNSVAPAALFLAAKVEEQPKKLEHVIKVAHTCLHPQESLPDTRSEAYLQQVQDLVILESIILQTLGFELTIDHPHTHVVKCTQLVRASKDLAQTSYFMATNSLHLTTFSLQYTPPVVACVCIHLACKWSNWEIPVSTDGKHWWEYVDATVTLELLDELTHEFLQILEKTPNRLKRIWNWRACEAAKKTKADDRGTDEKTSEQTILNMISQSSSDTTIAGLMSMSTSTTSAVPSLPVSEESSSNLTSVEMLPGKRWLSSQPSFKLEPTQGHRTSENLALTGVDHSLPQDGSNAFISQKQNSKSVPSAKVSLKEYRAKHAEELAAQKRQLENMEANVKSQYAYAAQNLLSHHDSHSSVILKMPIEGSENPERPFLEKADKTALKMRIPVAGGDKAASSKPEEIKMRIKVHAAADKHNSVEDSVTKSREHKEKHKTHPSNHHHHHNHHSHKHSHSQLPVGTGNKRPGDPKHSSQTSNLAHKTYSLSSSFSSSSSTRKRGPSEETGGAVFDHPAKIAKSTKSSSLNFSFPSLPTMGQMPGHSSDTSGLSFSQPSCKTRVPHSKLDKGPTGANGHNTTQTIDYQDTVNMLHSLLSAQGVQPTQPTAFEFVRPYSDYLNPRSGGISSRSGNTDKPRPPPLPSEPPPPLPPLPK
Excerpt: as §1

SGK1 = target: T10, SGK1 (Homo sapiens, UniProt O00141); assay: KinaseProfiler SGK1
T10 construct: purchased Millipore, Inc. (KinaseProfiler service)
Excerpt: as §1

MSK1 = target: T11, MSK1 (Homo sapiens, UniProt O75582); assay: KinaseProfiler MSK1
T11 construct: purchased Millipore, Inc. (KinaseProfiler service)
Excerpt: as §1

Mer = target: T12, Mer (Homo sapiens, UniProt Q12866); assay: KinaseProfiler Mer
T12 construct: purchased Millipore, Inc. (KinaseProfiler service)
Excerpt: as §1

DAPK2 = target: T13, DAPK2 (Homo sapiens, UniProt Q9UIK4); assay: KinaseProfiler DAPK2
T13 construct: purchased Millipore, Inc. (KinaseProfiler service)
Excerpt: as §1

EphA8 = target: T14, EphA8 (Homo sapiens, UniProt P29322); assay: KinaseProfiler EphA8
T14 construct: purchased Millipore, Inc. (KinaseProfiler service)
Excerpt: as §1

AKT3 = target: T15, AKT3 (Homo sapiens, UniProt Q9Y243); assay: KinaseProfiler AKT3
T15 construct: purchased Millipore (KinaseProfiler service)
T15 sequence (Q9Y243 whole entry): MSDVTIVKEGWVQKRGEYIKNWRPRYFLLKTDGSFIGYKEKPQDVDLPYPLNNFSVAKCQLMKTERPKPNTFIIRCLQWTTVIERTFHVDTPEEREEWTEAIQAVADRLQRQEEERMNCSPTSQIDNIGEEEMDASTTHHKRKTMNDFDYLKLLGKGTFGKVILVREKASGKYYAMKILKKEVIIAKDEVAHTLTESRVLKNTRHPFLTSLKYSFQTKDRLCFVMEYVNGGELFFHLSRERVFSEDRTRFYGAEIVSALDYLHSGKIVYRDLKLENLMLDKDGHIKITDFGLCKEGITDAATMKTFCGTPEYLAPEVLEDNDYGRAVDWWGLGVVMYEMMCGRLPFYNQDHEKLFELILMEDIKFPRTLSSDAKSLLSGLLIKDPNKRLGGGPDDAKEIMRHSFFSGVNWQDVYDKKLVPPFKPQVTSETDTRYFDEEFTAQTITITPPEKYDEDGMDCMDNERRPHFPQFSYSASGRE
Excerpt: as §1

EphA4 = target: T16, EphA4 (Homo sapiens, UniProt P54764); assay: KinaseProfiler EphA4
T16 construct: purchased Millipore, Inc. (KinaseProfiler service)
Excerpt: as §1

Pim-2 = target: T17, Pim-2 (Homo sapiens, UniProt Q9P1W9); assay: KinaseProfiler Pim-2
T17 construct: purchased Millipore, Inc. (KinaseProfiler service)
T17 sequence (Q9P1W9 whole entry): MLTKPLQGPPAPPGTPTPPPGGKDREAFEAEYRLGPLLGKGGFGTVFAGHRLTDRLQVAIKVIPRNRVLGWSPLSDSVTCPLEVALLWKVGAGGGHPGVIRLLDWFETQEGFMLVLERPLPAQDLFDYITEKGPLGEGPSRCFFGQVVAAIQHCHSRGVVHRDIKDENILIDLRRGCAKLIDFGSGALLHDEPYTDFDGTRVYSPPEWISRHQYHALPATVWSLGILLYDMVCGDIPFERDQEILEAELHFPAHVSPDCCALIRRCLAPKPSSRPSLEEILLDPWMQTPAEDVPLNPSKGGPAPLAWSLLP
Excerpt: as §1

CAMK2d = target: T18, CAMK2d (Homo sapiens, UniProt Q13557); assay: KinaseProfiler CAMK2d
T18 construct: purchased Millipore (KinaseProfiler service)
Excerpt: as §1

Structure (SMILES): Cc1c(-c2cnn(C)c2)nn(-c2ccccc2)c1NC(=O)Nc1cc(C(F)(F)F)nn1-c1ccccc1 [Example 3, 1-(1′,4-dimethyl-1-phenyl-1H,1′H-[3,4′-bipyrazol]-5-yl)-3-(1-phenyl-3-(trifluoromethyl)-1H-pyrazol-5-yl)urea]
- Avg POC (JNK2alpha2): 99.5 POC
- Avg POC (PrKX): 188 POC
- Avg POC (Lyn): 98 POC
- Avg POC (Hck): 110.5 POC
- Avg POC (MKNK2): 99 POC
- Avg POC (Abl2): 148.5 POC
- Avg POC (ITK): 128 POC
- Avg POC (ZAP-70): 135 POC
- Avg POC (CDK9/cyclinT1): 107.5 POC
- Avg POC (SGK1): 276.5 POC
- Avg POC (MSK1): 152.5 POC
- Avg POC (Mer): 104.5 POC
- Avg POC (DAPK2): 106 POC
- Avg POC (EphA8): 122 POC
- Avg POC (AKT3): 99 POC
- Avg POC (EphA4): 106.5 POC
- Avg POC (Pim-2): 117.5 POC
- Avg POC (CAMK2d): 131 POC
